Assay results: article PMC12016938, “A small molecule PKCε inhibitor reduces hyperalgesia induced by paclitaxel or opioid withdrawal” (JCI Insight, 2025)
Several values for one entry are separate records, joined by “and”; a condition that tells them apart may be missing. Identical values can stand only once. Counter-ions that a name gives are not always drawn.

Tested on: self-administration (addictive potential)
Assay: I.v. self-administration of CP612, between-session progressive ratio and demand curve
Protocol: We tested the addictive potential of CP612 by examining the extent to which rats are willing to work to obtain CP612. Rats were initially trained to self-administer either saline, morphine (500 μg/kg/i.v. infusion), or 1 of 3 different doses of CP612 (75, 150, or 300 μg/kg/i.v. infusion) for 4 days at fixed ratio 1 (FR1, where 1 nose poke delivers 1 infusion).
During the second phase, the ratio to obtain an infusion increased geometrically every other day (FR1, FR3, FR6, FR12, FR24, FR48, and FR96).
Data (number of self-infusions) were also fitted in an economic-demand curve, which provides an estimate of the motivation to obtain drugs and their addictive potential ([20]). We measured elasticity (α), which is the relative change in consumption as a function of price (i.e., ratio of nose pokes required to obtain an infusion). Behavior is considered “inelastic” when consumption is insensitive to price and “elastic” when consumption is sensitive to price. We also measured Pmax, which is the price at which intake switches from inelastic to elastic. […] (Figure 8B).
Rats not immediately anesthetized were eliminated from the study.
Following this initial acquisition phase at FR1, the ratio to obtain the drug was increased geometrically every other day: FR3 (3 nose pokes are required to obtain 1 infusion of morphine), FR6, FR12, FR24, FR48, and FR96. This allows for analysis of drug consumption as a function of “price” using demand curves for behavioral economics, which can estimate the motivation to obtain drugs and their “addictive potential” ([20]). For this, data from each rat were fitted to the equation log Q = log Q0 + k (e ^–α(Q0 ^C) – 1), where Q represents consumption (number of self-infusions), and Q0 represents the level of consumption at the lowest price. C represents price for the drug (i.e., the ratio), and k is set to a constant accounting for the estimated range of consumption in logarithmic units (k = 4 in these studies). The symbol α is the relative change in consumption across changes in price (ratio). Behavior is considered “inelastic” when consumption is insensitive to price (i.e., the curve is flat, and consumption is maintained despite increases in price), and it switches to “elastic” when consumption is sensitive to price (i.e., when the curve is steep and consumption declines with increases in price). […] We also compared groups for their average intake in the consumption-price curves by measuring α (elasticity) and Pmax.

[1] = individual rat values, drug self-administered

For `CN1CC[C@]23c4c5ccc(O)c4O[C@H]2[C@@H](O)C=C[C@H]3[C@H]1C5` [Morphine, Morphine sulfate, reference compound], the “Responding in the active hole when the ratio to obtain an infusion increased” value (FR1 to FR96, CP612 75, 150, 300 or morphine 500 μg/kg/i.v. infusion) was “increased responding”, the “Number of self-infusions when the ratio to obtain an infusion increased” value (FR1 to FR96, compared with saline) was “did not significantly decrease” and the “D1 AH (FR1)” value [1] was 7 and 9 and 15. The “D1 AH (FR3)” value [1] was 23 and 18 and 20, the “D1 AH (FR6)” value [1] was 51 and 24 and 47 and the “D1 AH (FR12)” value [1] was 97 and 70 and 72. For the same compound, the “D1 AH (FR24)” value [1] was 143 and 139 and 168, the “D1 AH (FR48)” value [1] was 113 and 164 and 127 and the “D1 AH (FR96)” value [1] was 127 and 137 and 133. For the same compound, the “D1 IH (FR1)” value [1] was 1 and 12 and 2, the “D1 IH (FR3)” value [1] was 9 and 12 and 5 and the “D1 IH (FR6)” value [1] was 0 and 9 and 7. The “D1 IH (FR12)” value [1] was 2 and 15 and 20, the “D1 IH (FR24)” value [1] was 7 and 9 and 20 and the “D1 IH (FR48)” value [1] was 13 and 28. The “D1 IH (FR96)” value [1] was 7 and 33, the “D1 Inf (FR1)” value [1] was 6 and 7 and 10 and the “D1 Inf (FR3)” value [1] was 7 and 5 and 6. The “D1 Inf (FR6)” value [1] was 8 and 4 and 7, the “D1 Inf (FR12)” value [1] was 8 and 5 and 6 and the “D1 Inf (FR24)” value [1] was 5 and 6. The “D1 Inf (FR48)” value [1] was 2 and 3, the “D1 Inf (FR96)” value [1] was 1 and the “D1 Latency (FR1)” value [1] was 1.5 and 1.4 and 2.3. For the same compound, the “D1 Latency (FR3)” value [1] was 0.38 and 0.7 and 0.267, the “D1 Latency (FR6)” value [1] was 0.2 and 0.317 and 0.6 and the “D1 Latency (FR12)” value [1] was 1.6 and 0.6 and 1.7. The “D1 Latency (FR24)” value [1] was 1.3 and 0.5 and 0.26, the “D1 Latency (FR48)” value [1] was 0.367 and 0.26 and 1.1 and the “D1 Latency (FR96)” value [1] was 1.0 and 1.1 and 0.7. For the same compound, the “D2 AH (FR1)” value [1] was 5 and 7 and 12, the “D2 AH (FR3)” value [1] was 25 and 23 and 26 and the “D2 AH (FR6)” value [1] was 59 and 60 and 46. The “D2 AH (FR12)” value [1] was 118 and 94 and 104, the “D2 AH (FR24)” value [1] was 143 and 151 and 176 and the “D2 AH (FR48)” value [1] was 163 and 134 and 158. The “D2 AH (FR96)” value [1] was 106 and 145 and 179, the “D2 IH (FR1)” value [1] was 8 and 6 and 2 and the “D2 IH (FR3)” value [1] was 1 and 11 and 13. For the same compound, the “D2 IH (FR6)” value [1] was 9 and 8, the “D2 IH (FR12)” value [1] was 8 and 7 and the “D2 IH (FR24)” value [1] was 11 and 7 and 20. The “D2 IH (FR48)” value [1] was 19 and 11, the “D2 IH (FR96)” value [1] was 6 and 16 and the “D2 Inf (FR1)” value [1] was 5 and 6 and 9. The “D2 Inf (FR3)” value [1] was 8 and 6, the “D2 Inf (FR6)” value [1] was 8 and 9 and 7 and the “D2 Inf (FR12)” value [1] was 9 and 6 and 7. For the same compound, the “D2 Inf (FR24)” value [1] was 5 and 6 and 7, the “D2 Inf (FR48)” value [1] was 3 and 2 and the “D2 Inf (FR96)” value [1] was 1. For the same compound, the “D2 Latency (FR1)” value [1] was 0.458 and 1.3 and 0.3, the “D2 Latency (FR3)” value [1] was 0.25 and 0.473 and 0.4 and the “D2 Latency (FR6)” value [1] was 3.2 and 1.4 and 0.647. The “D2 Latency (FR12)” value [1] was 0.127 and 0.277 and 0.753, the “D2 Latency (FR24)” value [1] was 3.0 and 1.6 and the “D2 Latency (FR48)” value [1] was 0.218 and 0.3 and 0.9. The “D2 Latency (FR96)” value [1] was 0.5 and 0.28 and 1.1, the “D3 AH (FR1)” value [1] was 8 and 11 and 13 and the “D3 IH (FR1)” value [1] was 3 and 5 and 0. For the same compound, the “D3 Inf (FR1)” value [1] was 6 and 7 and 9, the “D3 Latency (FR1)” value [1] was 0.6 and 2.1 and 0.053 and the “D4 AH (FR1)” value [1] was 10 and 12 and 11. For the same compound, the “D4 IH (FR1)” value [1] was 0 and 4 and 2, the “D4 Inf (FR1)” value [1] was 7 and 9 and the “D4 Latency (FR1)” value [1] was 0.13 and 0.6 and 0.632. The “last AH (FR1)” value [1] was 7 and 8 and 14, the “last IH (FR1)” value [1] was 3 and 2 and 4 and the “last Inf (FR1)” value [1] was 6. For the same compound, the “last Latency (FR1)” value [1] was 0.34 and 0.452 and 0.9, the “last-1 AH (FR1)” value [1] was 10 and 12 and 11 and the “last-1 IH (FR1)” value [1] was 0 and 4 and 2. The “last-1 Inf (FR1)” value [1] was 7 and 9, the “last-1 Latency (FR1)” value [1] was 0.13 and 0.6 and 0.632 and the “last-2 AH (FR1)” value [1] was 8 and 11 and 13. For the same compound, the “last-2 IH (FR1)” value [1] was 3 and 5 and 0, the “last-2 Inf (FR1)” value [1] was 6 and 7 and 9 and the “last-2 Latency (FR1)” value [1] was 0.6 and 2.1 and 0.053. For the same compound, the “last-3 AH (FR1)” value [1] was 5 and 7 and 12, the “last-3 IH (FR1)” value [1] was 8 and 6 and 2 and the “last-3 Inf (FR1)” value [1] was 5 and 6 and 9. For the same compound, the “last-3 Latency (FR1)” value [1] was 0.458 and 1.3 and 0.3, the “Pmax (price at which intake switches from inelastic to elastic)” value (morphine 500 μg/kg/i.v. infusion) was 50.1 and the “AVG AH (FR3)” value (morphine, individual rats) was 43.5 and 29.0 and 31.0 and 18.0 and 18.5 and 24.0. The “AVG AH (FR6)” value (morphine, individual rats) was 43.5 and 53.5 and 45.5 and 38.5 and 31.0 and 21.0, the “AVG AH (FR12)” value (morphine, individual rats) was 62.0 and 88.0 and 64.5 and 104.0 and 39.0 and 41.5 and the “AVG AH (FR24)” value (morphine, individual rats) was 164.5 and 149.5 and 79.5 and 187.0 and 122.5 and 61.0. The “AVG AH (FR48)” value (morphine, individual rats) was 232.5 and 252.5 and 73.5 and 255.0 and 135.0 and 63.0, the “AVG AH (FR96)” value (morphine, individual rats) was 203.5 and 351.0 and 57.0 and 198.0 and 210.5 and 36.0 and the “AVG IH (FR1_D1 to D4)” value (morphine, individual rats) was 10.3 and 8.8 and 13.3 and 5.3 and 14.8 and 7.0. For the same compound, the “AVG IH (FR1_Last 2 FR1 days)” value (morphine, individual rats) was 3.5 and 3.0 and 5.5 and 5.0 and 6.5 and 9.0, the “AVG IH (FR1_Last 4 FR1 days)” value (morphine, individual rats) was 10.8 and 3.5 and 9.5 and 4.8 and 11.0 and 7.5 and the “AVG IH (FR3)” value (morphine, individual rats) was 10.0 and 7.5 and 8.5 and 8.0 and 15.0 and 9.0. For the same compound, the “AVG IH (FR6)” value (morphine, individual rats) was 6.5 and 7.0 and 9.0 and 7.5 and 13.5 and 11.0, the “AVG IH (FR12)” value (morphine, individual rats) was 11.0 and 9.5 and 19.0 and 5.0 and 6.0 and 4.0 and the “AVG IH (FR24)” value (morphine, individual rats) was 11.0 and 10.0 and 15.0 and 7.5 and 8.5. For the same compound, the “AVG IH (FR48)” value (morphine, individual rats) was 8.5 and 13.5 and 12.0 and 18.0 and 9.5 and 13.0, the “AVG IH (FR96)” value (morphine, individual rats) was 8.5 and 18.5 and 13.5 and 14.5 and 26.0 and the “AVG Inf (FR1_D1 to D4)” value (morphine, individual rats) was 10.8 and 9.3 and 8.0 and 12.0 and 9.5 and 10.0. The “AVG Inf (FR1_Last 2 FR1 days)” value (morphine, individual rats) was 14.0 and 10.0 and 11.0 and 9.0 and 7.5, the “AVG Inf (FR1_Last 4 FR1 days)” value (morphine, individual rats) was 12.0 and 10.0 and 9.0 and 13.3 and 9.5 and 9.3 and the “AVG Inf (FR3)” value (morphine, individual rats) was 10.5 and 8.5 and 9.5 and 5.0 and 4.5. The “AVG Inf (FR6)” value (morphine, individual rats) was 7.0 and 7.5 and 6.0 and 4.0 and 3.0, the “AVG Inf (FR12)” value (morphine, individual rats) was 5.0 and 6.0 and 4.5 and 8.0 and 3.0 and the “AVG Inf (FR24)” value (morphine, individual rats) was 6.0 and 5.5 and 3.0 and 7.5 and 4.0 and 2.0. The “AVG Inf (FR48)” value (morphine, individual rats) was 4.5 and 5.0 and 1.0 and 2.0, the “AVG Inf (FR96)” value (morphine, individual rats) was 1.5 and 3.0 and 0.0 and the “AVG Latency (FR1_D1 to D4)” value (morphine, individual rats) was 2.4 and 4.0 and 9.8 and 1.3 and 2.0 and 1.1. The “AVG Latency (FR1_Last 2 FR1 days)” value (morphine, individual rats) was 0.271 and 0.4 and 3.0 and 0.18 and 0.74 and 1.1 and the “AVG Latency (FR1_Last 4 FR1 days)” value (morphine, individual rats) was 0.3 and 0.277 and 3.8 and 0.6 and 1.1.
